Values of other authors as cited in patent US20190156929A1, “METHODS OF IMPROVING PATIENT COMPLIANCE TO TREAT CONTRAST-INDUCED INJURY” (Saghmos Therapeutics, Inc., priority 2017, published 2019).

Tested on: contrast-induced nephropathy in patients undergoing coronary angiography/angioplasty
Conditions: four published Phase 2 trials; compared with isotonic saline; patients e.g. with high serum creatinine levels

SMILES: COc1ccc(CN2CCNCC2)c(OC)c1OC [Trimetazidine]
- reduction of the risk of contrast-induced nephropathy (CIN): more effective than isotonic saline in reducing the risk of contrast-induced nephropathy (CIN)
